# Test results reported in US20220226479A1, “CELL LAYER PERMEATION PROMOTER. COMPOSITION FOR FACILITATING DRUG ABSORPTION. AND PHARMACEUTICAL COMPOSITION” (University of Tsukuba, priority 2019, published 2022).
# “Also recorded” adds a separate entry of the source. Where a SMILES comes first, the peptide text is derived from it. Bridges are numbered along the chain shown (N, C = ends). [ ]: non-standard residue; d: D form. The star is where a group is joined. ξ: configuration not given here. Decanoyl(3ξ-OH) = CCCCCCCC(O)CC(=O)*; Decanoyl = CCCCCCCCCC(=O)*
# System: MDCK II cells
# Test: Permeation evaluation test with FD4 marker (dextran, molecular weight 4000) across a model epithelial cell layer in a transwell
# Format: cell-based, dog
# Settings: for cell-layer-permeation-promoting effect (permeation of FD4, result in words): 0.003 mM in 1 v/v % DMSO, FIG. 1-4; for increase/accumulation in the amount permeating the receiver solution, late period / reversibility of the permeation-accelerating effect: 0.003 mM; for increase/accumulation in the amount permeating the receiver solution, late period: period from two hours to five hours after the start of testing, test example 1; for reversibility of the permeation-accelerating effect: recovery of tight junctions and other cell bonding structures; for increase in the amount of FD4 permeating the receiver solution with respect to the negative control (factor): test substance 0.003 mM in 1 v/v % DMSO, two hours after the start of testing, test example 1, FIG. 1; for cell-layer-permeation-promoting effect compared with cu538-2: both at 0.003 mM, test examples 2-4, FIG. 2-4
# Procedure: MDCK II cells derived from dog kidney epithelial cells were used to create a model of an epithelial cell layer in which a transwell was used, and a test to evaluate permeation by substances was conducted. Specifically, MDCK II cells in a logarithmic growth phase were sowed in a transwell (diameter: 6.5 mm, collagen coat, pore size: 0.4 μm) (trade name “Corning Transwell 3495,” made by Corning Co., Ltd.) at a cell count of 3.4 to 4.0×10^4 cells, a 24-hole well plate was used as basal-side wells, and 600 μL of a cell growth medium was introduced into each of apical-side wells and the basal-side wells. The medium was replaced daily to form a layer, and three days after sowing the medium was replaced with a Hank's balanced salt solution (HESS) for measurement. After incubation for one hour at 37° C., layer formation was confirmed by measuring the transepithelial electrical resistance (TEER) using a resistance value measurement system (trade name “Millicell-ERS,” made by Millipore Corp.). After layer formation was confirmed, the apical-side medium was replaced by 100 μL of HESS to which a marker substance (FD4: […]) (made by Sigma KK) having a molecular weight of 4000 was added so as to reach a concentration of 1.0 w/v %, and test substances were added so as to reach the final concentrations indicated below. The transwell was shifted, at intervals of 30 minutes until five hours after addition of the marker substance, to the basal-side wells into which the new HESS entered, and the HESS in the remaining basal-side wells (referred to as a “receiver solution” below) was retrieved 50 μL at a time per well in a 96-hole well plate. The fluorescence intensity of the retrieved HESS at an excitation wavelength of 485 nm and a fluorescence wavelength of 528 nm was measured using a fluorescent plate reader (trade name “Wallac 1420 ARVO MX,” made by Perkin Elmer Corp.).
# A test to evaluate permeation by substances was conducted in the same manner as in test example 1, except that the test substances were as indicated below.
Structure (SMILES),"cell-layer-permeation-promoting effect (permeation of FD4, result in words)","increase/accumulation in the amount permeating the receiver solution, late period",reversibility of the permeation-accelerating effect,increase in the amount of FD4 permeating the receiver solution with respect to the negative control (factor),"amount of marker substance permeating the receiver solution over time (positive control) (0.0001 mM in 1 v/v % DMSO, over five hours after the start of testing)",cell-layer-permeation-promoting effect compared with cu538-2
"CCCCCCC[C@H](O)CC(=O)N[C@@H](CC(C)C)C(=O)N[C@H](CCC(=O)O)C(=O)N[C@H](CCC(N)=O)C(=O)N[C@@H](C(=O)N[C@H](CC(C)C)C(=O)N[C@@H](CCC(N)=O)C(=O)N[C@@H]1COC(=O)[C@H]([C@@H](C)CC)NC(=O)[C@@H](CCC(N)=O)NC(=O)[C@H](CC(C)C)NC(=O)[C@H](CC(C)C)NC(=O)[C@@H](CCC(N)=O)NC(=O)[C@@H](CC(C)C)NC(=O)[C@@H](C(C)C)NC1=O)C(C)C (single isomer, unassigned) [cu538-1]",accelerated permeation of substances in the paracellular pathway,substantially no increase/accumulation,reversible,four,–,–
"C/C1=C/C(=O)O[C@@H]2C[C@@H](CC[C@H](C)/C=C\C=C\CC1)O[C@@](O)([C@@H]1CSC(=O)N1)C2 [Latrunclin A, reference compound]",–,–,–,–,continuous increase/accumulation,–
CCCCCCCCCC(=O)N[C@@H](CC(C)C)C(=O)N[C@H](CCC(=O)O)C(=O)N[C@H](CCC(N)=O)C(=O)N[C@@H](C(=O)N[C@H](CC(C)C)C(=O)N[C@@H](CCC(N)=O)C(=O)N[C@@H]1COC(=O)[C@H]([C@@H](C)CC)NC(=O)[C@@H](CCC(N)=O)NC(=O)[C@H](CC(C)C)NC(=O)[C@H](CC(C)C)NC(=O)[C@@H](CCC(N)=O)NC(=O)[C@@H](CC(C)C)NC(=O)[C@@H](C(C)C)NC1=O)C(C)C [NY-38] (Decanoyl-L[dE][dQ][dV][dL]Q[dS][dV][dL][dQ]LL[dQ]I; ester 7-C),accelerated permeation of substances in the paracellular pathway; also recorded: cell-layer-permeation-promoting effect was found,–,reversible,–,–,more remarkable
CCCCCCC[C@@H](O)CC(=O)N[C@@H](CC(C)C)C(=O)N[C@H](CCC(=O)O)C(=O)N[C@H](CCC(N)=O)C(=O)N[C@@H](C(=O)N[C@H](CC(C)C)C(=O)N[C@@H](CCC(N)=O)C(=O)N[C@@H]1COC(=O)[C@H]([C@@H](C)CC)NC(=O)[C@@H](CCC(N)=O)NC(=O)[C@H](CC(C)C)NC(=O)[C@H](CC(C)C)NC(=O)[C@@H](CCC(N)=O)NC(=O)[C@@H](CC(C)C)NC(=O)[C@@H](C(C)C)NC1=O)C(C)C [cu538-2],accelerated permeation of substances in the paracellular pathway,substantially no increase/accumulation,reversible,eight,–,–
CCCCCCCC(O)CC(=O)N[C@@H](CC(C)C)C(=O)N[C@H](CCC(=O)O)C(=O)N[C@H](CCC(N)=O)C(=O)N[C@@H](C(=O)N[C@H](CC(C)C)C(=O)N[C@@H](C)C(=O)N[C@@H]1COC(=O)[C@H]([C@@H](C)CC)NC(=O)[C@@H](CCC(N)=O)NC(=O)[C@H](CC(C)C)NC(=O)[C@H](CC(C)C)NC(=O)[C@@H](CCC(N)=O)NC(=O)[C@@H](CC(C)C)NC(=O)[C@@H](C(C)C)NC1=O)C(C)C (stereo partly drawn) [cu592] ({Decanoyl(3ξ-OH)}-L[dE][dQ][dV][dL]A[dS][dV][dL][dQ]LL[dQ]I; ester 7-C),–,–,–,–,–,equivalent
CCCCCCCC(O)CC(=O)N[C@@H](CC(C)C)C(=O)N[C@H](CCC(=O)O)C(=O)N[C@H](CCC(N)=O)C(=O)N[C@@H](C(=O)N[C@H](CC(C)C)C(=O)N[C@@H](CCC(N)=O)C(=O)N[C@@H]1COC(=O)[C@H]([C@@H](C)CC)NC(=O)[C@@H](CCC(N)=O)NC(=O)[C@H](CC(C)C)NC(=O)[C@H](CC(C)C)NC(=O)[C@@H](C)NC(=O)[C@@H](CC(C)C)NC(=O)[C@@H](C(C)C)NC1=O)C(C)C (stereo partly drawn) [cu605] ({Decanoyl(3ξ-OH)}-L[dE][dQ][dV][dL]Q[dS][dV][dL][dA]LL[dQ]I; ester 7-C),found to have an effect,–,–,–,–,–
CCCCCCCC(O)CC(=O)N[C@@H](CC(C)C)C(=O)N[C@H](CCC(=O)O)C(=O)N[C@H](CCC(N)=O)C(=O)N[C@@H](C(=O)N[C@H](CC(C)C)C(=O)N[C@@H](CCC(N)=O)C(=O)N[C@@H]1COC(=O)[C@H]([C@@H](C)CC)NC(=O)[C@@H](C)NC(=O)[C@H](CC(C)C)NC(=O)[C@H](CC(C)C)NC(=O)[C@@H](CCC(N)=O)NC(=O)[C@@H](CC(C)C)NC(=O)[C@@H](C(C)C)NC1=O)C(C)C (stereo partly drawn) [cu619] ({Decanoyl(3ξ-OH)}-L[dE][dQ][dV][dL]Q[dS][dV][dL][dQ]LL[dA]I; ester 7-C),found to have an effect,–,–,–,–,more remarkable
